# The supplement of paper PMC10307832
# Legend:
# Experiment in all cases: relative viability (nuclei count vs DMSO), 5 days (fraction); higher = more cells survive
# HCC-78 = system: HCC-78
# Method in brief: (§1)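 A single step with final 0.05% Triton X-100, 1% formaldehyde and 1 ug/ml Hoechst fixed the cells and stained nuclei 5 days after treatment. Lung cancer cell lines in 1536-well plates had been treated by pin tool the day after seeding with one drug alone or a fixed anchor-drug dose plus five library-drug doses (not always all listed) in √10 steps, and nuclei were counted on 4× images. Relative viability is the ratio of nuclei in treated wells to nuclei in vehicle wells, taken as the median of duplicate plates.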
# NCI-H1650 = system: NCI-H1650
# Method in brief: as §1
# NCI-H3122 = system: NCI-H3122
# Method in brief: as §1
# RERF-LC-KJ = system: RERF-LC-KJ
# Method in brief: as §1
# EKVX = system: EKVX
# Method in brief: as §1
# NCI-H1734 = system: NCI-H1734
# Method in brief: as §1
# HCC-15 = system: HCC-15
# Method in brief: as §1
# HARA = system: HARA
# Method in brief: as §1
# SK-LU-1 = system: SK-LU-1
# Method in brief: as §1
# 201T = system: 201T
# Method in brief: as §1
# NCI-H1944 = system: NCI-H1944
# Method in brief: as §1
# BEN = system: BEN
# Method in brief: as §1
smiles,measurement,setting,value
O=C(O)CCCCC(CCSCc1ccccc1)SCc1ccccc1 (configuration not stated) [CPI-613] + CS(=O)(=O)CCNCc1ccc(-c2ccc3ncnc(Nc4ccc(OCc5cccc(F)c5)c(Cl)c4)c3c2)o1 [Lapatinib] (partner 2 µM),relative viability,HCC-78; first compound 5 µM,0.825
same,relative viability,HCC-78; first compound 15.81 µM,0.591
same,relative viability,HCC-78; first compound 158.11 µM,0.816
same,relative viability,HCC-78; first compound 500 µM,1.14
same,relative viability,NCI-H1650; first compound 5 µM,0.584
same,relative viability,NCI-H1650; first compound 15.81 µM,0.662
same,relative viability,NCI-H1650; first compound 50 µM,0.719
same,relative viability,NCI-H1650; first compound 158.11 µM,0.082
same,relative viability,NCI-H1650; first compound 500 µM,0.023
same,relative viability,NCI-H3122; first compound 5 µM,1.02
same,relative viability,NCI-H3122; first compound 15.81 µM,0.971
same,relative viability,NCI-H3122; first compound 50 µM,0.994
same,relative viability,NCI-H3122; first compound 158.11 µM,0.856
same,relative viability,NCI-H3122; first compound 500 µM,0.0332
same,relative viability,RERF-LC-KJ; first compound 5 µM,0.857
same,relative viability,RERF-LC-KJ; first compound 15.81 µM,0.826
same,relative viability,RERF-LC-KJ; first compound 50 µM,0.782
same,relative viability,RERF-LC-KJ; first compound 158.11 µM,0.854
same,relative viability,RERF-LC-KJ; first compound 500 µM,0.819
same,relative viability,EKVX; first compound 5 µM,0.186
same,relative viability,EKVX; first compound 15.81 µM,0.208
same,relative viability,EKVX; first compound 50 µM,0.218
same,relative viability,EKVX; first compound 158.11 µM,0.193
same,relative viability,EKVX; first compound 500 µM,0.206
same,relative viability,NCI-H1734; first compound 5 µM,0.939
same,relative viability,NCI-H1734; first compound 15.81 µM,0.686
same,relative viability,NCI-H1734; first compound 50 µM,1
same,relative viability,NCI-H1734; first compound 158.11 µM,0.349
same,relative viability,NCI-H1734; first compound 500 µM,0.116
same,relative viability,HCC-15; first compound 5 µM,0.785
same,relative viability,HCC-15; first compound 15.81 µM,0.801
same,relative viability,HCC-15; first compound 50 µM,0.682
same,relative viability,HCC-15; first compound 158.11 µM,0.599
same,relative viability,HCC-15; first compound 500 µM,0.285
same,relative viability,HARA; first compound 5 µM,0.702
same,relative viability,HARA; first compound 15.81 µM,0.678
same,relative viability,HARA; first compound 50 µM,0.792
same,relative viability,HARA; first compound 158.11 µM,0.521
same,relative viability,HARA; first compound 500 µM,0.0307
same,relative viability,SK-LU-1; first compound 5 µM,0.818
same,relative viability,SK-LU-1; first compound 15.81 µM,0.692
same,relative viability,SK-LU-1; first compound 50 µM,0.752
same,relative viability,SK-LU-1; first compound 158.11 µM,0.587
same,relative viability,SK-LU-1; first compound 500 µM,0.379
same,relative viability,201T; first compound 5 µM,1.09
same,relative viability,201T; first compound 15.81 µM,0.958
same,relative viability,201T; first compound 50 µM,0.953
same,relative viability,201T; first compound 158.11 µM,0.978
same,relative viability,201T; first compound 500 µM,0.972
same,relative viability,NCI-H1944; first compound 5 µM,0.818
same,relative viability,NCI-H1944; first compound 15.81 µM,0.725
same,relative viability,NCI-H1944; first compound 50 µM,0.753
same,relative viability,NCI-H1944; first compound 158.11 µM,0.77
same,relative viability,NCI-H1944; first compound 500 µM,0.632
same,relative viability,BEN; first compound 5 µM,0.673
same,relative viability,BEN; first compound 15.81 µM,0.577
same,relative viability,BEN; first compound 50 µM,0.526
